Experimental data reported in publication PMC7822874, “Chemoprotective antimalarials identified through quantitative high-throughput screening of Plasmodium blood and liver stage parasites” (Scientific Reports, 2021).
Like-named read-outs stand apart in the source and are kept apart here.

Legend:
[1] = tested on: P. berghei-ANKA-GFP-LucCON liver stage parasites in HepG2-A16-CD81EGFP cells; assay: P. berghei liver stage Pb-Luc assay, Method 1 (UCSD, 1536-well); assay type: cell-based, Plasmodium berghei; conditions: Plasmodium berghei, 48 h; on Pb-Luc signal, 1 uM, repeat 1: reference of the scale not given here; on Pb-Luc signal, 1 uM, repeat 2: reference of the scale not given here; on Pb-Luc signal, 1 uM, repeat 3: reference of the scale not given here; on Pb-Luc signal, 3 uM, repeat 1: reference of the scale not given here; on Pb-Luc signal, 3 uM, repeat 2: reference of the scale not given here; on Pb-Luc signal, 3 uM, repeat 3: reference of the scale not given here
[2] = tested on: Plasmodium falciparum Dd2 asexual blood stage parasites; assay: microbe, parasite or virus in culture; parameters: species or system Plasmodium falciparum Dd2 in human erythrocytes; single determination (one 11-point concentration-response curve); conditions: Plasmodium falciparum, DD2, Erythrocyte, 72 h
in vitro = conditions: human
[3] = nominal 1 uM (10 mM stock), […] for 15 mM, 1.2 uM for 12 mM, 2 uM for 20 mM stock, average of 2 wells, 1536-well plate, repeat 1, read-out: Pb-Luc signal, 1 uM, repeat 1
[4] = nominal 1 uM (10 mM stock), […] for 15 mM, 1.2 uM for 12 mM, 2 uM for 20 mM stock, average of 2 wells, 1536-well plate, repeat 2, read-out: Pb-Luc signal, 1 uM, repeat 2
[5] = nominal 1 uM (10 mM stock), […] for 15 mM, 1.2 uM for 12 mM, 2 uM for 20 mM stock, average of 2 wells, 1536-well plate, repeat 3, read-out: Pb-Luc signal, 1 uM, repeat 3
[6] = nominal 3 uM (10 mM stock), 4.5 uM for 15 mM, 3.6 uM for 12 mM, 6 uM for 20 mM stock, average of 2 wells, 1536-well plate, repeat 1, read-out: Pb-Luc signal, 3 uM, repeat 1
[7] = nominal 3 uM (10 mM stock), 4.5 uM for 15 mM, 3.6 uM for 12 mM, 6 uM for 20 mM stock, average of 2 wells, 1536-well plate, repeat 2, read-out: Pb-Luc signal, 3 uM, repeat 2
[8] = nominal 3 uM (10 mM stock), 4.5 uM for 15 mM, 3.6 uM for 12 mM, 6 uM for 20 mM stock, average of 2 wells, 1536-well plate, repeat 3, read-out: Pb-Luc signal, 3 uM, repeat 3
[9] = nominal 1 uM (10 mM stock), […] for 15 mM, 1.2 uM for 12 mM, 2 uM for 20 mM stock, average of 2 wells, repeat 2
[10] = nominal 3 uM (10 mM stock), 4.5 uM for 15 mM, 3.6 uM for 12 mM, 6 uM for 20 mM stock, average of 2 wells, repeat 2
[11] = HepG2-A16-CD81EGFP cells, uninfected
[12] = read-out: Pb-Luc P. berghei liver stage signal, repeat 1
[13] = read-out: Pb-Luc P. berghei liver stage signal, repeat 2
[14] = read-out: Pb-Luc P. berghei liver stage signal, repeat 3

Row | Structure (SMILES) | activity at 1 µM [1, 3] [%] | activity at 1 µM [1, 4] [%] | activity at 1 µM [1, 5] [%] | activity at 3 µM [1, 6] [%] | activity at 3 µM [1, 7] [%] | activity at 3 µM [1, 8] [%] | AC50 ([2]; read-out: AC50) [µM] | HepG2 viability signal, 1 uM, repeat 2 (HepG2-A16-CD81EGFP cells; [9]) [%] | HepG2 viability signal, 3 uM, repeat 2 (HepG2-A16-CD81EGFP cells; [10]) [%] | viability at 48 h, 1 µM (in vitro; [11]) [%] | viability at 48 h, 3 µM (in vitro; [11]) [%] | also measured
1 | COc1ccccc1NC(=O)N1CCOc2ccc(CN3CCc4ccccc4C3)cc2C1 [NCGC00471234-01] | 118 | 82 | 108 | 110 | 87.1 | 47 | 2.37 | 96.28 | 96.50 | 98 | 96.8 | –
2 | CCN1CCN(C(=O)c2ccc3c(c2)N(Cc2ccc(Cl)cc2)C(=O)c2ccccc2[S+]3[O-])CC1 (centres unmarked) [NCGC00109464-01] | 104 | 92.1 | 102 | 83.2 | 80.5 | 103 | 0.668 | 105.55 | 102.35 | 110 | 108 | –
3 | COC(=O)c1ccc2[nH]c(C[C@@H]3C[C@@H](C(C)C)[C@H](CNC4CCCCC4)C=C3C)nc2c1 [NCGC00401987-01] | 81.1 | 132 | 98.9 | 56.8 | 65 | 83.4 | 8.41 | 103.84 | 105.05 | 99.2 | 102 | –
4 | CCOc1ccc(Cl)cc1CN(C)CC1(O)CCCNC1 (centres unmarked) [NCGC00439019-01] | 133 | 111 | 171 | 102 | 113 | 128 | 2.99 | 100.51 | 101.33 | 99.5 | 96.9 | –
5 | O[C@H]1CC[C@@H](Cc2cc(-c3ccc(F)cc3)on2)O[C@@H]1CNC1CCCCC1 [NCGC00401034-01] | 123 | 102 | 154 | 112 | 106 | 134 | 2.43 | 105.13 | 100.53 | 104 | 107 | –
6 | CN1CCN(C(=O)c2ccc3c(c2)N(Cc2ccc(C(F)(F)F)cc2)C(=O)c2ccccc2S3)CC1 [NCGC00108242-01] | 104 | 123 | 103 | 91 | 99.2 | 92.4 | 0.531 | 102.88 | 103.88 | 99.8 | 101 | –
7 | O=C(Nc1ccc2c(N3CCOCC3)ncnc2c1)c1ccc(Br)o1 [NCGC00425547-01] | 126 | 99.1 | 129 | 123 | 89.4 | 131 | 2.66 | 103.01 | 102.12 | 110 | 106 | –
8 | CCCOC(=O)c1c(NC(=O)C(C)Sc2nc(-c3ccccc3)cc(C(F)(F)F)n2)sc(C(=O)N(C)C)c1C (centres unmarked) [NCGC00101274-01] | 94.7 | 104 | 101 | 61.7 | 98.3 | 113 | 1.68 | 104.19 | 103.13 | 98.8 | 100 | –
9 | COc1cc2c(cc1OCc1ccccc1)N(C(=O)c1cc3ccccc3[nH]1)CC21CCN(C)CC1 [NCGC00419851-01] | 59.5 | 89.6 | 74.1 | 16.8 | 54.6 | 95.7 | 0.944 | – | – | – | – | HepG2 viability signal, 1 uM, repeat 2 (HepG2-A16-CD81EGFP cells; human, 48 h, 1 µM): 101.97%; HepG2 viability signal, 3 uM, repeat 2 (HepG2-A16-CD81EGFP cells; human, 48 h, 3 µM): 102.28%; viability at 48 h, 1 µM (in vitro): 99%; viability at 48 h, 3 µM (in vitro): 98.9%
10 | CCc1ccc(Oc2c(C(F)(F)F)oc3c(CN4CCN(CC)CC4)c(O)ccc3c2=O)cc1 [NCGC00101506-01] | 82.1 | 87.1 | 67 | 64.2 | 90 | 40.1 | 0.376 | 92.46 | 94.20 | 92.4 | 95.7 | –
11 | CCOC(=O)c1ccc(NC2=CC(c3ccc(O)c(OCC)c3)N(c3ccc(C(=O)OCC)cc3)C2=O)cc1 (centres unmarked) [NCGC00102600-01] | 107 | 140 | 101 | 117 | 126 | 113 | 3.35 | 100.94 | 102.23 | 98.6 | 101 | –
12 | COc1ccc(-c2noc(-c3cccn3CC(=O)Nc3ccccc3F)n2)cc1F [NCGC00445496-01] | 109 | 140 | 144 | 172 | 189 | 163 | 4.22 | – | 99.66 | 98.5 | 101 | –
13 | COc1cccc(C2C(C(=O)Nc3ccc(C)cc3C)=C(C)Nc3c(C(=O)Nc4ccccc4)cnn32)c1 (centres unmarked) [NCGC00126286-01] | 97.2 | 125 | 153 | 94.7 | 93.4 | 100 | 2.11 | 98.62 | 98.36 | 94.8 | 99.4 | –
14 | Cn1nnnc1SCCCNCc1cccc(OCc2ccccc2)c1 [NCGC00117957-01] | 78.6 | 108 | 127 | 58.9 | 94 | 87.5 | 9.44 | 101.95 | 103.35 | 97.9 | 101 | –
15 | Cc1ccc(O)c([C@H](CCN(C(C)C)C(C)C)c2ccccc2)c1 [NCGC00159519-02] | – | – | – | – | – | – | – | – | – | – | – | activity at 1 µM [1, 12]: 106%; activity at 3 µM [1, 12]: 74.9%; activity at 1 µM [1, 13]: 80%; activity at 3 µM [1, 13]: 85.4%; activity at 1 µM [1, 14]: 106%; activity at 3 µM [1, 14]: 89%; AC50 [2]: 4.22 µM; HepG2 viability, fourth HepG2 column (HepG2-A16-CD81EGFP cells; human): 99.21%; HepG2 viability, second HepG2 column (HepG2-A16-CD81EGFP cells; human): 104.09%; HepG2 viability, third HepG2 column (HepG2-A16-CD81EGFP cells; human): 100.98%; viability (in vitro): 103%
16 | COc1ccc(-c2noc(-c3cccn3CC(=O)Nc3ccccc3)n2)cc1F [NCGC00445500-01] | 155 | 167 | 187 | 187 | 192 | 169 | 2.37 | 98.82 | 102.85 | 103 | 105 | –
17 | COc1cc(C(=O)NC2CCCc3c2[nH]c2c(Cl)cccc32)cc(OC)c1OC (centres unmarked) [NCGC00424034-01] | 122 | 161 | 165 | 157 | 165 | 156 | 2.11 | 98.86 | 98.35 | 101 | 98.2 | –
18 | Oc1ccccc1-c1cc(-c2cccnc2)c2cncn2c1 [NCGC00412170-01] | 103 | 117 | 108 | 100 | 122 | 76.4 | 1.72 | 95.01 | 100.05 | 98.3 | 101 | –
